The values below come from publication PMC6419424, “Rational protein design of Bacillus sp. MN chitosanase for altered substrate binding and production of specific chitosan oligomers” (Journal of Biological Engineering, 2019).

For the test, the target named is T1, CSN (BspCsnMN) (Bacillus sp. MN, UniProt H9CXV8).
T1 construct: GH8 chitosanase (EC 3.2.1.132), Strep-tag II fusion (pET-22b(+)::StrepII-csn), expressed in E. coli Rosetta 2 (DE3), Strep-Tactin purified
As to the kind of experiment: UHPLC-ELSD-ESI-MS product quantification, Hill fit. As to conditions: 40 mM sodium acetate pH 6, 30 °C, 10 min. The format is biochemical.

T1 sequence (H9CXV8 entry or part of it): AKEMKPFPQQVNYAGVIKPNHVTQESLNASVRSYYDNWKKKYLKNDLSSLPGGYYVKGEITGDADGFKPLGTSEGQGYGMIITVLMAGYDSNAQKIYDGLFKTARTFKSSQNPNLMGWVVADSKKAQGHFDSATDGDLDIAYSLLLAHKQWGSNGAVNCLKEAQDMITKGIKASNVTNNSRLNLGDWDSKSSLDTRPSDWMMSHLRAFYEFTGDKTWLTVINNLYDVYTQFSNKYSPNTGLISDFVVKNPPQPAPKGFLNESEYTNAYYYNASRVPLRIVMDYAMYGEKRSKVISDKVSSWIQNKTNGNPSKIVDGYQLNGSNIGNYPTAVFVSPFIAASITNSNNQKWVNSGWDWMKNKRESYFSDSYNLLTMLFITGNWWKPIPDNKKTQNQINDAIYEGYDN

For the compound `N[C@H]1[C@H](O[C@H]2[C@H](O)[C@@H](N)[C@H](O[C@H]3[C@H](O)[C@@H](N)[C@H](O[C@H]4[C@H](O)[C@@H](N)[C@H](O[C@H]5[C@H](O)[C@@H](N)C(O)O[C@@H]5CO)O[C@@H]4CO)O[C@@H]3CO)O[C@@H]2CO)O[C@H](CO)[C@@H](O)[C@@H]1O` (stereo partly shown) [D5], the “UHPLC-ELSD-ESI-MS product quantification, Hill fit” value is “CSN showed high activity on the polymer, and it was even slightly more active on D5”.
